Test results: patent US20240307346A1, “METHOD FOR TREATING OR PREVENTING A DISEASE OF INCOMPLETE IMMUNE RECONSTITUTION IN AIDS USING (5R)-5-HYDROXYTRIPTOLIDE” (PEKING UNION MEDICAL COLLEGE HOSPITAL, priority 2018, published 2024)
Converted amounts (≈) assume the structure as drawn.

Legend:
CD4+T-cells = experiment: CFSE proliferation of CD4+T-cells in PHA-P stimulated PBMC; type: cell-based, human; conditions: for inhibition of the proliferation of CD4+T-cells in healthy human peripheral blood: Comparative Example 4, PHA-P 5 μg/mL, 100 ng/mL, 72 hours, FIG. 7
Experimental: Healthy human peripheral blood mononuclear cells (PBMC) (purchased from ATCC) were cultured in RPMI-1640/10% FBS serum medium containing IL-2 (20IU). and then stained with CFSE (carboxyfluorescein diacetate succinimidy ester) (10 nM) at 37° C. for 10 minutes, washed twice with the above medium, followed by addition of PHA-P (phytohemagglutinin P) (5 μg/mL) to stimulate cell proliferation with or without addition of T8 compound (100 nM).
The cells were washed with the medium twice, PHA-P (5 μg/mL) was added, and the test compound T8 or triptolide (100 ng/mL each) was added at the same time. After 72 hours at 37° C. the cells were collected, stained with anti-CD4-PE antibody at 4°° C. for 30 minutes, and washed with FACS buffer twice. The cell proliferation was analyzed by flow cytometry.

CD4+T-cell subsets = experiment: Activation of CD4+T-cell subsets (CD38, HLA-DR expression by flow cytometry); conditions: for inhibition of immune activation of CD4+T-cell subsets by PMA+Ionomycin (CD38, HLA-DR): Comparative example 3, PMA 100 nM + Ionomycin 1 μM, 100 ng/ml; for inhibition of immune activation of CD4+T-cell subsets by PMA+Ionomycin (CD38, HLA-DR) / inhibition of immune activation of CD4+T-cell subsets by anti-CD3/CD28 antibody (CD38, HLA-DR): 72 hours; for inhibition of immune activation of CD4+T-cell subsets by anti-CD3/CD28 antibody (CD38, HLA-DR): Comparative example 3, isolated CD4+T-cells, anti-CD3/CD28 beads
Experimental: After 48 hours, the cells were stained with anti-human CD4, CD38, HLA-DR flow cytometry antibody (purchased from Invitrogen), and the CD4^+T-cells were gated by flow cytometry to detect the expression of CD38, HLA-DR molecules on the cell surface.
Freshly isolated healthy human PBMC (3×10^7 cells) were cultured in cell culture medium containing IL-2 (20 IU/mL), stimulated with PMA (100 nM) and Ionomycin (1 μM) for 72 hours, and the compound to be tested (100 ng/ml) was added at the same time: the cells were washed twice with FACS buffer, followed by addition of anti CD3-PerCP, CD4-PE, CD38-PE-Cy7. HLA-DR-APC antibodies, stained for 30 minutes at 4° C.: the cells were washed twice with FACS buffer, and the expression of the above molecules was detected by FACS.
CD4^+T-cells were isolated from freshly isolated healthy human PBMCs with anti-CD4 antibody-coated magnetic beads through positive screening and then cultured in a medium containing IL-2 (20 IU/mL). The cell activation was stimulated with anti-CD3/CD28 antibody-coated magnetic beads for 72 hours, and the compound to be tested was added at the same time. The cells were collected, washed twice with FACS buffer, followed by addition of anti CD3-PerCP, CD4-PE, CD38-PE-Cy7, HLA-DR-APC antibodies, stained at 4° C. for 30 minutes: the cells were washed twice with FACS buffer and collected, and the expression of the above molecules was detected by flow cytometry.

NF-κB = NF-κB luciferase reporter (p3κB-luc) assay in HEK293T cells; type: cell-based; conditions: for inhibition of the activity of the NF-κB signal pathway activated by TNF-α / inhibition of the activity of the background NF-κB signaling pathway: Comparative Example 2, HEK293T, FIG. 5; for inhibition of the activity of the NF-κB signal pathway activated by TNF-α: TNF-α 20 ng/ml; for inhibition of the activity of the background NF-κB signaling pathway: no TNF-α
Experimental: NF-κB driven […] expression plasmid (p3κB-luc, 100 ng) and internal reference plasmid pBgal (purchased from Bioonline: www.bioon.com.cn) (pSV-β-Galactosidase Control Vector, β-galactosidase expression plasmid, 5 ng) were transfected into HEK293T cells (purchased from ATCC). […] After another 24 hours, all cells were collected and lysed with reporter lysis buffer (purchased from Promega). Luciferase assay system (Promega) was used to detect luciferase activity. Beta-Glo Asaay system (Promega) was used to detect β-Galactosidase activity, and the inhibition effects of T8 on NF-κB activity was analyzed.
The NF-κB reporter gene plasmid p3κB-luc was transfected into HEK293T cells for expression, and pSV-β-Galactosidase Control Vector was co-transfected as transfection internal reference. The activation of NF-κB was induced by TNF-α treatment. T8 and triptolide were added respectively. The expression of NF-κB reporter gene was indicated by detecting luciferase activity, and the effect of T8 and triptolide on NF-κB activation induced by TNF-α was evaluated.
Cell transfection: HEK293T cells were transfected with lipofectamine 2000 Transfection Reagent according to the reagent instructions. 100 ng of plasmid was transfected with 1 μL of transfection reagent into each well of a 24-well cell cultureplate. The plasmid and the transfection reagent were diluted with […] of OPTI-MEM medium, respectively and then mixed together. The mixture was allowed to stand at room temperature for 5 minutes, and then added into the cells in each well. The resulting mixture was mixed gently, placed back into the 37° C. incubator, and the cells were cultured for a specified time.
Luciferase activity detection: NF-κB reporter gene plasmid p3κB-luc plasmid (100 ng), internal reference plasmid pSV-β-Galactosidase Control Vector (5 ng) were transfected into HEK293T cells. After 24 hours. TNF-α (20 ng/ml) was added (or not added) to stimulate the cells for 24 hours, and then the cells were collected and lysed with reporter lysis buffer. Luciferase assay system was used to detect luciferase activity. and Beta-Glo Asaay system was used to detect β-Galactosidase activity.

MTT cytotoxicity test = type: cell-based; conditions: human, HEK293T cells, read-out: CC50 (50% Cytotoxic Concentration)
Experimental: MTT colorimetric method was used to detect the cytotoxicity. HEK293T cells were seeded into 96-well plates (1×10^4/100 μL/well), 100 μL of each concentration of the compounds (compound concentration refers to the figures) was added in triplicate. Control wells without compound were setting at the same time. The cells were incubated in a 37° C. 5% CO2 cell incubator for 72 hours. 100 μL of the supernatant was aspirated from each well and discarded, followed by addition of 20 μL of MTT solution (5 mg/mL) into the wells. […] The absorbance was measured at 595 nm. The CC50 value (50% Cytotoxic Concentration) was calculated, i.e., the concentration of the compound required for producing toxicity on 50% of HEK293T cells.

[1] = system: high-sensitivity C-reactive protein (hsCRP); experiment: Phase II trial: hsCRP; type: in vivo, human; conditions: 1 mg daily (HT8), Week 48
Experimental: (§1) The phase II, double-blind, randomized, placebo-controlled trial was conducted in adults patients with long-term suppressed HIV infection and suboptimal CD4 recovery, at nine hospitals in China.
(§2) The patients were 1:1:1 assigned to receive oral T8 0.5 mg or 1 mg daily, or placebo combined with antiretroviral therapy for 48 weeks. All study staff and participants were masked. The study drug was recommended to be taken in the morning on an empty stomach, and be separated from participants' daily ART. Participants were followed and assessed at Week 4, 12, 24, 36 and 48 of treatment. On each scheduled visit, the investigator would assess the participant's general status, newly-onset symptoms and signs, and adverse events.
(§3) The primary endpoints of the study included 1) Absolute change of CD4 counts from baseline to week 48: 2) Proportions of participants achieving a CD4 increase ≥50 cells/mm^3 from baseline to week 48: and 3) changes of selected inflammatory markers from baseline to week 48, including interferon-y-induced protein 10 (IP-10), high-sensitivity C-reactive protein (hsCRP), and IL-6.

CD4 counts = experiment: Phase II placebo-controlled trial in HIV immunological non-responders: CD4 counts; type: in vivo, human; conditions: for participants with a CD4 count increase over 50 cells/mm^3: placebo 34.6%; for mean absolute increase of CD4 count from baseline: week 48, placebo 32; for CD4 count at Week 48: FAS, with ART
CD8 T cells = experiment: Phase II trial: cellular activation of CD8 T cells (CD38, HLA-DR); type: in vivo, human; conditions: among the three groups (0.5 mg, 1 mg, placebo), 62 participants
Experimental: T-cell subsets were measured using CytoFlex flow cytometer (Beckman Coulter Life Science) at participating centers, including T cells (CD45+CD3+), CD4 T cells (CD45+CD3+CD4+), and CD8 T cells (CD45+CD3+CD8+). In PUMCH Lab. exploratory CD8 markers (CD45+CD3+CD8+CD38+ and CD45+CD3+CD8+HLA-DR+) were further measured for participants in three Beijing centers.

IL-6 = experiment: Phase II trial: IL-6; type: in vivo, human; conditions: 1 mg daily (HT8), Week 48
Experimental: as §1, §2, §3

[2] = Phase II trial: safety (adverse events); type: in vivo, human; conditions: for participants with treatment-emergent adverse events (TEAEs): placebo 80.7%
Experimental: as §2
Safety endpoints included occurrence of adverse events (AEs) and serious adverse events (SAEs) over the study period. Adverse events included those related to the study drug; all serious adverse events; and abnormal laboratory test values at each study visit.
The efficacy analysis was based on the full analysis set (FAS), which included all randomized patients with at least one posttreatment efficacy assessment, and the per-protocol set (PPS), which included patients who completed the study with proper study drug exposure and without any major protocol violations. The safety analysis was based on the safety analysis set (SAS), which included all randomized patients who received at least one dose of study drug. All safety results were descriptive, listed and summarized.

[3] = system: interferon-γ-induced protein 10 (IP-10); experiment: Phase II trial: serum IP-10; type: in vivo, human; parameters: mean change of serum interferon-γ-induced protein 10: unit not given here; conditions: placebo −22.8; for mean change of serum IP-10 level: Week 48
Experimental: as §1, §2, §3
The primary efficacy differences between treatments on CD4 counts and inflammatory marker level were assessed through the t-test and analysis of covariance (ANCOVA) model. The ANCOVA model, including the baseline CD4 counts as the covariate, study group and center as fixed factors, generated the Least square means (LSMEANs) and relative 95% confidence interval (95% CI) in both FAS and PPS.

HIV-1 = experiment: Phase II trial: plasma HIV-1 viral load; type: in vivo, human; conditions: all participants, with ART, 48 weeks
Experimental: Plasma HIV-1 viral load was measured at Peking Union Medical College Hospital (PUMCH) Lab by COBAS AmpliPrep/COBAS TaqMan V2.0 RT-PCR (Roche). The lower detection limit is 20 copies per milliliter.

SMILES: CC(C)[C@]12O[C@H]1[C@@H]1O[C@]13[C@]1(O[C@H]1C[C@H]1C4=C(CC[C@@]13C)C(=O)OC4)[C@@H]2O [triptolide]
- inhibition of the proliferation of CD4+T-cells in healthy human peripheral blood (CD4+T-cells): significantly inhibit
- inhibition of immune activation of CD4+T-cell subsets by PMA+Ionomycin (CD38, HLA-DR) (CD4+T-cell subsets): significantly inhibit
- inhibition of immune activation of CD4+T-cell subsets by anti-CD3/CD28 antibody (CD38, HLA-DR) (CD4+T-cell subsets): significantly inhibit
- inhibition of the activity of the NF-κB signal pathway activated by TNF-α (NF-κB): effectively inhibit
- inhibition of the activity of the background NF-κB signaling pathway (NF-κB): effectively inhibit
- CC50 at 72 h (MTT cytotoxicity test): ~0.017 µg/mL (≈ 0.0472 µM)

SMILES: CC(C)[C@]12O[C@H]1[C@@H]1O[C@]13[C@]1(O[C@H]1C[C@@]1(O)C4=C(CC[C@]31C)C(=O)OC4)[C@@H]2O [T8, (5R)-5-hydroxytriptolide]
- change of HsCRP [1]: slight decrease
- participants with a CD4 count increase over 50 cells/mm^3 (CD4 counts; 0.5 mg daily (LT8), Week 48): 45.1%
- mean absolute increase of CD4 count from baseline (CD4 counts; 0.5 mg daily (LT8)): 49 cells/mm^3
- CD4 increase in participants with a baseline CD4 count 200-350 cells/mm^3 (CD4 counts; 1 mg daily (HT8) over placebo): consistent superiority
- participants achieving a CD4 increase >20% (superiority) (CD4 counts; 1 mg daily (HT8), Week 48): unremarkable
- participants with a CD4 count increase over 50 cells/mm^3 (CD4 counts; 1 mg daily (HT8), Week 48): 50%
- participants achieving a CD4 increase >20% (CD4 counts; 1 mg daily (HT8), week 24, versus other groups): more participants
- mean absolute increase of CD4 count from baseline (CD4 counts; 1 mg daily (HT8)): 63 cells/mm^3
- mean increase of CD4 count in participants over 45 years old (CD4 counts; 1 mg daily, 48 weeks, placebo 20): 96 cells/mm^3
- CD4 count at Week 48 (CD4 counts; 0.5 mg daily oral (LT8), 48 weeks): 299 cells/mm^3
- CD4 count at Week 48 (CD4 counts; 1 mg daily oral (HT8), 48 weeks): 303 cells/mm^3
- effect on CD4 in participants with a baseline CD4 count below 200 cells/mm^3 (CD4 counts; Week 48): insignificant
- changes of CD4/CD8 ratio (CD4 counts; Week 48, between the three groups (0.5 mg, 1 mg, placebo)): comparable
- benefit in CD4 counts in participants receiving SARS-COV-2 vaccination (CD4 counts; high-dose (1 mg), stratified analysis): insignificant
- surface expressions of CD38 or HLA-DR on CD8 T cells (CD8 T cells): comparable
- change of IL-6 (IL-6): slight decrease
- participants with treatment-emergent adverse events (TEAEs) ([2]; 0.5 mg daily (LT8), 48 weeks): 84.3%
- drug-related SAEs ([2]; 0.5 mg or 1 mg daily, 48 weeks): No drug-related SAEs were reported
- tolerability ([2]; 0.5 mg or 1 mg daily, all participants): well-tolerated
- participants with treatment-emergent adverse events (TEAEs) ([2]; 1 mg daily (HT8), 48 weeks): 89.1%
- TEAEs ≥Grade 3 ([2]; 1 mg daily (HT8), mostly neutrophil decrease and dyslipidemia): slightly more frequent
- mean change of serum IP-10 level ([3]; 0.5 mg daily (LT8)): -42.5 pg/mL
- mean change of serum interferon-γ-induced protein 10 ([3]; 1 mg daily (HT8), 48 weeks): −72.1
- mean change of serum IP-10 level ([3]; 1 mg daily (HT8)): -72.1 pg/mL
- inhibition of the proliferation of CD4+T-cells in healthy human peripheral blood (CD4+T-cells): significantly inhibit
- proliferation of CD4+T cells stimulated by PHA (cell proliferation) (CD4+T-cells; Example 2, PBMC, PHA-P 5 μg/mL, 100 nM, 48 h, without compound 16.6%): 1.9%
- inhibition of immune activation of CD4+T-cell subsets by PMA+Ionomycin (CD38, HLA-DR) (CD4+T-cell subsets): significantly inhibit
- inhibition of immune activation of CD4+T-cell subsets by anti-CD3/CD28 antibody (CD38, HLA-DR) (CD4+T-cell subsets): significantly inhibit
- HLA-DRCD4/CD4 (CD4+T-cell subsets; Example 3, PBMC, PMA 20 nM + Ionomycin 1 μM, 100 nM, 48 h, without compound 36.3%): 3.5%
- CD38CD4/CD4 (CD4+T-cell subsets; Example 3, PBMC, PMA 20 nM + Ionomycin 1 μM, 100 nM, 48 h, without compound 41.6%): 31%
- inhibition of the activity of the NF-κB signal pathway activated by TNF-α (NF-κB): effectively inhibit
- inhibition of the activity of the background NF-κB signaling pathway (NF-κB): effectively inhibit
- inhibition of background NF-κB activity (untreated with TNF-alpha) (NF-κB; Example 1, HEK293T, 100 nM, 24 h, FIG. 1): effectively inhibit
- inhibition of NF-κB activity stimulated by TNF-alpha (NF-κB; Example 1, HEK293T, TNF-alpha 20 ng/mL, 100 nM, 24 h, FIG. 1): effectively inhibit
- virological suppression during the study (HIV-1): virologically-suppressed
- CC50 at 72 h (MTT cytotoxicity test): ~0.435 µg/mL (≈ 1.16 µM)
